One assay has as its system PEN-2. Briefly: PEN-2 protein levels in transfected Drosophilia S2 cells (Western analysis). The assay is classed as cell-based. As to conditions: concentration not given. An excerpt:
(§1) In order to determine if Fkbp13 can also affect the stability of other components of the γ-secretase complex, Drosophilia S2 cells were transfected with tagged constructs expressing APH-1, PEN-2 or Nct and then examined for the effects of FK506 on protein levels.
(§2) cDNA's encoding APH-1, PEN-2 and Nct were subcloned into pAc5.1/V5-HisA or pIB/V5-His TOPO and transiently transfected into Drosophilia S2 cells using cellfectin according to the manufacturer's protocol (Invitrogen). Cells were collected between 24-48 hours for Western analysis using the following antibodies: monoclonal anti-V5 1:5000(Invitrogen), monoclonal anti-HA 1:2000(Roche), monoclonal anti-FLAG M2 1:5000(Sigma) and monoclonal anti-β-tubulin 1:1000 (DSHB).
(§3) In contrast, no effect was observed on the levels of either APH-1 or Nct (FIG. 4A). […] Drosophilia S2 cells were transfected with tagged versions of APH-1, PEN-2 or Nct and treated with 50 μM FK506 over a 24 hour period. No effect was observed on the levels of APH-1, Nct or β-tubulin control. Similarly, no effect was observed using either DMSO (control) or the known γ-secretase inhibitor, DAPT.

In another assay the target is T1, γ-secretase (Homo sapiens, UniProt P49768).
T1 construct: expressed in transfected cells; host or cells: Cos-7 stably expressing APP C99 (pCEP4-SPA4CT-DA)
Briefly: Aβ1-40 sandwich ELISA in Cos-7 cells stably expressing APP C99 and transfected with human PS1. Format: cell-based. As to the method: To determine the effect of drug treatment on Psn stability, HEK293 cells were transiently co-transfected with psn and Fkbp13 constructs. 24 hours after transfection, 100 mm dishes of transfected HEK293 cells were treated with 5 μM FK506 (CALBIOCHEM), 1 μM Rapamycin (CALBIOCHEM) or DMSO (control), harvested at various time points and analyzed by Western blotting techniques. To measure Aβ40, Cos-7 cells were transfected with pCEP4-SPA4CT-DA (gift from Dr. Gunter Merdes, ZMBH, University of Heidelberg) that contains an APP^C99 cDNA using lipofectin (Gibco) according to the manufacturers protocol. Cells stably expressing APP^C99 were selected using 300 μg/ml hygromycin and maintained in DMEM medium containing 10% FBS, […] penicillin-streptomycin and 100 μg/ml hygromycin. These cells were then transiently transfected with plasmids carrying human PS1. 48 hours after transfection, cells were starved in serum-free DMEM medium for 2 hours, then treated with 1 μm of the γ-secretase inhibitor DAPT or 0.5 μm of the Fkbp13 inhibitor rapamycin or FK506 respectively, in DMEM medium containing 5% FBS o/n. Cells then were harvested and lysed and the conditioned lysates were used to measure Aβ1-40 by sandwich ELISA as described in (Yan et al. Nature 402:533-537 1999)using 6E10 (Senetek) as the capture antibody and the polyclonal Pan-β-Amyloid (Oncogene) for detection of Aβ40. […]

The next assay has as its system Actin. Briefly: Actin levels in HEK293 cells transfected with Fkbp13 and Psn (Western blot). Format: cell-based. The conditions noted are these: treated for 1-24 hours. Here is the method: Protein quantification, SDS-polyacrylamide gel electrophoresis (5-12% or 8-12% gradient gel, or 10% SDS-PAGE) and immunoblot analysis were carried out as described previously (Guo et al. Journal of Cell Science 113:3499-3508 2000) using the monoclonal antibodies, anti-β-actin and anti-FLAG (Sigma), anti-GFP (Santa Cruz Biotechnology), anti-HA (12c-A5, Roche), anti-β-tubulin (Developmental Studies Hybridoma Bank), anti-Xpress and anti-V5 (Invitrogen) and a polyclonal anti-GFP (Santa Cruz Biotechnology). Microsomal fractions were prepared from cells using a detergent-free protocol. All steps were performed at <4° C. Cell pellets were resuspended in 300 μl hypo-osmotic buffer (20 mM Tris/HCl, pH 7.5) supplemented with complete protease inhibitor (Roche), homogenized through a 27G needle and sonicated. Nuclei were removed by centrifugation (1200 g, 25 minutes) and the post-nuclear supernatant (containing membrane and soluble fractions) was denatured for 5 minutes at 100° C. in SDS-PAGE sample buffer. […]
(§4) To determine the effect of drug treatment on Psn stability, HEK293 cells were transiently co-transfected with psn and Fkbp13 constructs. 24 hours after transfection, 100 mm dishes of transfected HEK293 cells were treated with 5 μM FK506 (CALBIOCHEM), 1 μM Rapamycin (CALBIOCHEM) or DMSO (control), harvested at various time points and analyzed by Western blotting techniques. […]
For orientation: Immunoblotting shows a protein as a band on a membrane.

In another assay the test system is APH-1. Briefly: APH-1 protein levels in transfected Drosophilia S2 cells (Western analysis). The assay is classed as cell-based. The conditions noted are these: 50 μM FK506 over a 24 hour period.
Excerpt: as §1, §2, §3

The next assay relates to Nct. Nature of the assay: Nct protein levels in transfected Drosophilia S2 cells (Western analysis). The assay is classed as cell-based. The conditions noted are these: 50 μM FK506 over a 24 hour period.
Excerpt: as §1, §2, §3

The test system of a further assay is human PS-1. Nature of the assay: 35S-methionine pulse-chase of PS1 stability in Cos-7 cells. The assay is classed as cell-based. The conditions noted are these: Cos-7 cells transfected with human PS-1, in the presence of FK506; without FK506 3.5±0.2 h. As to the method: In order to confirm that FK506 was affecting the stability of PS1 a pulse-chase of ^35S-methionine was performed and the amount of PS1 remaining after various chase periods was measured by immunoprecipitation and autoradiography.
Pulse-chase labeling of cells was performed using TRAN ^35S-LABEL™ Metabolic Labeling Reagent (ICN). Cos-7 cells were transiently transfected with human PS-1. After 48 hours, cells were washed with PBS and then starved in the presence of methionine and cysteine free DMEM (Invitrogen) containing 10% dialyzed fetal bovine serum for 1 hour at 37° C. Cells were then incubated with [^35S] methionine (400 μCi/ml) in the presence or absence of FK506 for an additional 2 hours. The cells were then washed with 10 ml of PBS twice and chased with DMEM containing the indicated reagents for various times. Cells were then harvested and lysed in IP buffer and TCA precipitated to quantify the incorporation of ^35S-methionine. Equal amounts of microsomal fractions from radioactive cells were then incubated with 2 μg of anti-human PS1. Subsequently, […] of protein A agarose beads (Invitrogen) were added to the IP reactions and rotated for 2 hours at 4° C. The beads were then washed 4 times with IP washing buffer, denatured in 2× SDS-PAGE sample buffer and run on 12% SDS-PAGE.

For another assay, the system named is Fkbp13. Briefly: Fkbp13 levels in HEK293 cells transfected with Fkbp13 and Psn (Western blot). Format: cell-based, Drosophila. As to conditions: treated for 1-24 hours. As to the method:
HEK293 cells were maintained at 37° C. and 5% CO2 in α-minimal essential medium (Hyclone) supplemented with 10% heat-inactivated fetal bovine serum and plated 24 hours before transfection. For each 10 cm tissue culture dish, 12-16 μg cDNA was used. HEK293 cells were transiently transfected with plasmids encoding Drosophila Rya-r44f, Fkbp13, or psn using calcium phosphate precipitation. The cells were harvested 40-42 hours afer transfection.
Protein quantification, SDS-polyacrylamide gel electrophoresis (5-12% or 8-12% gradient gel, or 10% SDS-PAGE) and immunoblot analysis were carried out as described previously (Guo et al. Journal of Cell Science 113:3499-3508 2000) using the monoclonal antibodies, anti-β-actin and anti-FLAG (Sigma), anti-GFP (Santa Cruz Biotechnology), anti-HA (12c-A5, Roche), anti-β-tubulin (Developmental Studies Hybridoma Bank), anti-Xpress and anti-V5 (Invitrogen) and a polyclonal anti-GFP (Santa Cruz Biotechnology). Microsomal fractions were prepared from cells using a detergent-free protocol. […]
as §4

As to `C[C@H](NC(=O)Cc1cc(F)cc(F)c1)C(=O)N[C@H](C(=O)OC(C)(C)C)c1ccccc1` [DAPT], the “effect of DAPT on protein levels (PEN-2) in S2 cells” value in the assay on PEN-2 was “no effect”. On γ-secretase (APP C99 + human PS1, 1 μm DAPT or 0.5 μm rapamycin o/n), the “β-amyloid peptide production (in words)” value is reported as “comparable”.
As for `C=CC[C@@H]1/C=C(\C)C[C@H](C)C[C@H](OC)[C@H]2O[C@@](O)(C(=O)C(=O)N3CCCC[C@H]3C(=O)O[C@H](/C(C)=C/[C@@H]3CC[C@@H](O)[C@H](OC)C3)[C@H](C)[C@@H](O)CC1=O)[C@H](C)C[C@@H]2OC` [FK506], in the assay with Actin, the “levels of Actin” value is “no effect”. In addition, the “levels of APH-1” value in the assay on APH-1 is recorded as “no effect”. Moreover, in the assay with Nct, the “levels of Nct” value was “no effect”. In addition, the PS1 half-life in the assay with human PS-1 was 1.25 ± 0.3 h. Further, the “levels of Fkbp13” value with Fkbp13 is given as “no effect”. In addition, the “decrease in the levels of β-amyloid peptide” value at γ-secretase (APP C99 + human PS1, 0.5 μm FK506 o/n, vs untreated or DMSO treated controls) is recorded as 80%.

These data come from patent US20060084672A1, “Method for modification of y-secretase activity through inhibition of Fkbp13” (The Hospital for Sick Children, priority 2004, published 2006).
